One data set concerns Daoy cells. Put plainly: Pseudo-vessel formation on Matrigel. The data set is classed as cell-based, human. How it is done:
(§1) Figure 6 C29 inhibits the formation of pseudo vessel structures. (A) Formation of pseudo-vessels by Daoy cells, ONS-76, and HD-MB03 cultured on Matrigel and treated with Control (DMSO) or C29 (1 or 2.5 µM); n = 3. (B) Number of meshes (geometric units of the net formed by the cells on the matrigel surface) were counted with ImageJ. Statistics were performed using Student t-test for only 2 comparisons or ANOVA test for multiple comparisons. *** p < 0.001, scale = 500 μm. […]
(§2) Pseudo‐vessels formation assays
(§3) The cells were deprived of serum overnight. They were then seeded (75000 Daoy
(§4) with Matrigel Matrix, hESC‐Qualified (VWR). Plates were then incubated at 37 °C, 5%
(§5) CO2 for 24 hours. Representative images were taken with the Evos XL Core Cell Imaging
(§6) System at low magnification (4X). For each image, we determined the number of meshes
(§7) (number of geometric units of the net formed by the cells seeded on the matrigel surface). […]

For another data set, the system named is HD-MB03 cells. The experiment in a line: Pseudo-vessel formation on Matrigel. Format: cell-based, human. Particulars: HD-MB03, 1 µM. As to the method:
as §1, §2, §3, §4, §5, §6, §7

The test system of a further data set is ONS-76 cells. Put plainly: Pseudo-vessel formation on Matrigel. Format: cell-based, human. How it is done: as §1, §2, §3, §4, §5, §6, §7
Data set [1] in a line: Quantification of C29 in mouse cerebellum postmortem (LC/MS). Particulars: for Amount of C29 in cerebellum: individual animals. The data set is classed as in vivo. How it is done: A 5 mM stock solution of C29 (1.743 mg/mL) in DMSO was prepared. This solution was diluted with a mixture of acetonitrile/water, 8/4, v/v to produce the solution with the highest concentration: 1250 ng/1.2 mL. Successive dilutions with acetonitrile/water, 8/4, v/v provided 5 more standards with concentrations between 50 ng/mL and 1250 ng/mL.
Samples of cerebellum were prepared by dissolving minced biological material in 1.2 mL acetonitrile/water, 8/4, v/v. After sonication for 5 min, the vials were centrifuged (15,000 rpm) and the supernatant was filtered through a […] PTFE microfilter.
All standards and samples were analysed using a LC/MS system consisting of an Agilent 1100 HPLC chain with a degasser, a binary pump, a column oven, an automatic injector, and a UV detector. The column is a Phenomenex Gemini analytical column 3 µm C18 110 A 150 mm × 3 mm × 3 µm, at 25 °C. The solvents are water with 0.1% formic acid (solvent A) and acetonitrile with 0.1% formic acid (solvent B). The gradient is as follows: 10% B to 100% B over 8 min, 100% B over 6 min, 100% B to 10% B over 1 min, and 10% B over 3 min (total time: 18 min). The UV detection is carried out over the range of 190–400 nm (in 2 nm steps). The mass spectrometer is an LCQ Advantage (ThermoScientific, Waltham, MA, USA) of the “ion trap 3D” type, equipped with an electrospray source.
Mass spectrometric detection was carried out in negative mode and in SRM (single reaction monitoring) mode according to the monitoring of the 380.9–194.2 transition. The isolation span of the ion was 2 mass units (193.2–195.2). The applied normalized collision energy was 30%. Each standard and sample were injected in duplicate. Each duplicate was separated by a blank and the concentration of the standards ranged from […]. […] Signals were acquired based on their area and integrated using the ICIS algorithm according to the following parameters: smoothing points: 15; baseline window: 75 scans; area noise factor: 5; peak noise factor: 10. Calibration is external, and the regression was linear. The origin was included in the calibration.
A critical and limiting feature of a drug targeting MB is its ability to cross the blood–brain barrier (BBB) and reach the tumour in the brain. […] However, after 5 days of treatment, 24 h after the last administration, no more C29 was found in the cerebellum of the mice.

Molecules are shown by their SMILES. Several values for one entry are separate records, joined by “and”; a condition that tells them apart may be missing. Identical values can stand only once.

The text below walks through data of paper PMC9738107, “Targeting of the ELR+CXCL/CXCR1/2 Pathway Is a Relevant Strategy for the Treatment of Paediatric Medulloblastomas” (Cells, 2022).

As to `O=C(Nc1cccc(Cl)c1)Nc1nc2ccc([N+](=O)[O-])cc2s1` [C29, 1-(3-chlorophenyl)-3-(6-nitrobenzo[d]thiazol-2-yl) urea], the Pseudo-vasculature formation result is “inhibited this ability” in the data set with Daoy cells (1 µM); “inhibited this ability” in the data set on Daoy cells (2.5 µM); “some vascular structures were retained” in the data set with ONS-76 cells (ONS-76, 1 µM); “completely lost this ability” in the data set on ONS-76 cells (ONS-76, 2.5 µM). The “Number of meshes (pseudo-vessels)” value in the data set with HD-MB03 cells is reported as “significantly reduced the number of meshes”. Moreover, the “Accumulation in cerebellum upon repeated administration” value in data set [1] (5 days of treatment, 24 h after the last administration) is “does not accumulate”. In addition, the “Amount of C29 in cerebellum” value was 0 ng C29/mg cerebellum in data set [1] (gavage 100 mg/kg daily, chronic (5 days), 24 h after last treatment); 0 ng C29/mg cerebellum and 5.394 ng C29/mg cerebellum in data set [1] (gavage 100 mg/kg, acute (3 h), 100 mg/kg); 0 ng C29/mg cerebellum in data set [1] (gavage 200 mg/kg daily, chronic (5 days), 24 h after last treatment); 13.1 ng C29/mg cerebellum and 9.3 ng C29/mg cerebellum and 7.4 ng C29/mg cerebellum and 4.7 ng C29/mg cerebellum and 6.4 ng C29/mg cerebellum in data set [1] (gavage 200 mg/kg, acute (3 h), 200 mg/kg). Moreover, the “Blood–brain barrier crossing” value in data set [1] (oral administration) is “can cross the blood–brain barrier”.
